Assay results published in paper PMC12040169 (PLOS Biology, 2025).

Assay: in vitro
Conditions: human, hela cells, % viability

| SMILES | viability at 28.5 h, 10 µM (bulk resorufin, single well) [%] | viability at 28.5 h, 10 µM [%] |
| --- | --- | --- |
| CC(N)c1cc2ccccc2o1 (stereo not drawn) [CBK001492C] | 97.7 | – |
| Cn1c(CSCc2ccccc2)nnc1SCC(=O)c1ccc(Br)cc1 [CBK266565] | – | 94.9 |
| O=C(CSCc1ccccc1)Nc1ccc(S(=O)(=O)N2CCOCC2)cc1 [CBK087885] | – | 93.3 |
| O=C(Nc1cccc(-c2nnn[nH]2)c1)Nc1ccc(Cl)c(Cl)c1 [CBK155454] | – | 96.3 |
| CC(C)(C)OC(=O)N1CCN(Cc2nnc(Cc3ccccc3)o2)CC1 [CBK306223] | – | 94.1 |
| CCn1c(CNC(=O)C(C)Cn2cc(Cl)cn2)nc2ccccc21 (stereo not drawn) [CBK281392] | – | 91.9 |
| COc1cc(C(=O)Nc2ccc3[nH]ccc3c2)cc(OC)c1OC [CBK159696] | – | 92.9 |
| O=C(C1=C(O)C(=O)N(CCCN2CCOCC2)C1c1ccc(Cl)c(Cl)c1)c1cccs1 (stereo not drawn) [CBK264565] | – | 104 |
| OC(CNc1nccnc1-c1ccco1)COc1ccccc1 (stereo not drawn) [CBK036862] | – | 96.7 |
| CC1(C)CC(NC(=O)c2cc([N+](=O)[O-])ccc2Cl)CC(C)(C)N1 [CBK263948] | – | 93.7 |
| CC(=O)N1C[C@H]2CCCN(S(=O)(=O)c3ccc4c(c3)CCC4)[C@H]2C1 [CBK282254] | – | 87.5 |
| O=C(Nc1ccc(C(=O)Nc2cccc(-c3nc4ccccc4o3)c2)cc1)c1ccc([N+](=O)[O-])cc1 [CBK262606] | – | 96.6 |
| CC(=O)NCCc1nc2cc(NC(=O)Nc3ccccc3)ccc2n1C [CBK268216] | – | 103 |
| O=C(CCCOc1ccc(Cl)cc1Cl)Nc1ccc(O)cc1C(=O)O [CBK131688] | – | 104 |
| O=C(Nc1cccnc1)C1c2ccccc2Oc2ccccc21 [CBK263129] | – | 98.6 |
| O=S(=O)(Nc1cc(O[C@@H]2CCNC2)c2occc2c1)c1cc(F)c(Br)cc1F [CBK073943C] | – | 92 |
| N#Cc1nccnc1NCc1ccccc1CN1CCCC1CO (stereo not drawn) [CBK306418] | – | 102 |
| CCOC(=O)c1ccoc1C[N+](C)(CC)CC [CBK007022I] | – | 83.7 |
| Cc1cc(C)n(-c2ccc(N3CCC4(CC3)OCCO4)nn2)n1 [CBK305255] | – | 97.8 |
| COc1ccc([C@@]23CC[C@@H](NC(=O)Nc4ccc(Cl)c(F)c4)C[C@@H]2N(C(C)C)CC3)cc1OC [CBK056852T] | – | 99.2 |
| c1cnc2cc(Oc3ccc4nccnc4c3)ccc2n1 [CBK267266] | – | 99.4 |
| CN1CCCC(NC(=O)C2CCN(Cc3ccc(F)cc3)CC2)C1 (stereo not drawn) [CBK282516] | – | 119 |

| SMILES | viability at 28.5 h, 10 µM (bulk resorufin, single well) [%] | viability at 28.5 h, 10 µM [%] |
| --- | --- | --- |
| COc1cc(C2C(C#N)=C(N)OC3=C2C(=O)CC(c2ccccc2)C3)cc(Br)c1O (stereo not drawn) [CBK261587] | – | 87.1 |
| N#Cc1cccc(Nc2cncc(-c3cccs3)n2)c1 [CBK066030] | – | 95.4 |
| COc1ccc(OCCNC(=O)c2ccc(C)nc2NCCCn2ccnc2)cc1 [CBK076385] | – | 117 |
| CC1=NN(c2nc(-c3cccc([N+](=O)[O-])c3)cs2)C(=O)C1/N=N/c1ccc(S(N)(=O)=O)cc1 (stereo not drawn) [CBK262434] | – | 94 |
| O=C(CCNS(=O)(=O)c1ccccc1)N1CCC(Cc2ccccc2)CC1 [CBK270091] | – | 84.9 |
| OCCn1nc(C2CCCC2)nc1CCc1c[nH]c2ccccc12 [CBK307509] | – | 85.1 |
| O=C(c1ccc(NCCCCO)nc1)N1CCC(N2CCOCC2)CC1 [CBK306521] | – | 96 |
| CC(C)NC(=O)[C@H]1O[C@H](CCN2CCN(c3ccccc3)CC2)CC[C@@H]1O [CBK288719] | – | 123 |
| O=C(CN1CCCC2(CCN(C(=O)c3cc(F)c(F)cc3F)C2)C1)Nc1ccc(F)c(Cl)c1 (stereo not drawn) [CBK132008] | – | 96.9 |
| O=C1CCCN1CC(=O)N1CCCC1c1nc2ccccc2[nH]1 (stereo not drawn) [CBK282315] | – | 86.3 |
| Cc1cc(NCn2nnc3ccccc32)ccc1Br [CBK057031] | – | 88.2 |
| COc1cccc([C@H]2CC[C@H](N(CCN(C)C)C(=O)Nc3cc(F)ccc3F)CC2)c1OC [CBK050184] | – | 113 |
| O=C(NCc1cccnc1)c1ccc2c(c1)C(=O)N(Cc1ccco1)C2=O [CBK269675] | – | 88.6 |
| COc1ccc(C)cc1S(=O)(=O)NCCO [CBK267881] | – | 98.4 |
| O=C1OCCN1C1CCN(S(=O)(=O)c2cccs2)CC1 [CBK043313] | – | 99.3 |
| CN1CCN(C(=O)CN(Cc2ccccc2)S(C)(=O)=O)CC1 [CBK265745] | – | 97.6 |
| Cc1ccc2oc([C@H]3CCN(S(C)(=O)=O)C3)nc2c1 [CBK289371] | – | 97.2 |
| CC(=O)C(Sc1ccc2nnc(-c3ccc(C)cc3)n2n1)C(C)=O [CBK287525] | – | 98.9 |
| CCCCSc1nc(N)cc(N2CCCC(C(=O)N3CCOCC3)C2)n1 (stereo not drawn) [CBK307210] | – | 75.2 |
| NC(=O)c1ccc(-c2cc(Nc3ccc(CCO)cc3)ncn2)cc1 [CBK090773] | – | 102 |
| COc1ccc(C(=O)C2=C(O)C(=O)N(CCN3CCNCC3)C2c2ccccc2F)cc1 (stereo not drawn) [CBK264666] | – | 99.4 |
| OC1(CCCN2CCOCC2)C2CCCC1CN(Cc1ccccc1)C2 (stereo not drawn) [CBK025076C] | – | 115 |

| SMILES | viability at 28.5 h, 10 µM (bulk resorufin, single well) [%] | viability at 28.5 h, 10 µM [%] |
| --- | --- | --- |
| O=S(=O)(c1ccc(-c2csc(-c3ccccc3)n2)cc1)N1CCCCCC1 [CBK265504] | – | 84.9 |
| Cc1ccc(-c2nc(C3CCCN3C(=O)C3CC3C(=O)O)n3ccccc23)cc1 (stereo not drawn) [CBK046559] | – | 79.8 |
| COc1ccc(S(=O)(=O)NC[C@H]2C[C@@H]3CC[N@]2C[C@@H]3CN2CCOCC2)cc1 [CBK288761] | – | 87.7 |
| Cc1ccc2c(c1)C(=O)CC1(CCC3C(C(=O)NC4CCCC4)C31)O2 (stereo not drawn) [CBK282716] | – | 83.4 |
| CCOC(=O)c1sc(NCCOc2cccc(C)c2)nc1C [CBK265574] | – | 85.2 |
| O=C(c1ccc(F)cc1)C1CCN(CCc2c[nH]c3ccccc23)CC1 [CBK149125] | – | 96.3 |
| Cc1ccnc2c1C(=O)C1(CC2)CCN(S(=O)(=O)c2c(C)noc2C)CC1 [CBK059557T] | – | 80.4 |
| COc1cc(OC)c2c(c1)OC1(CCN(C(=O)C3CCCO3)CC1)CC2=O (stereo not drawn) [CBK156476] | – | 93.3 |
| CN(Cc1ccc(-c2ccc(S(C)(=O)=O)cc2)nc1)C1CCN(C(=O)c2ccc(Cl)c(Cl)c2)CC1 [CBK164101T] | – | 104 |
| Cc1cc(C)n(CCCC(=O)N2CC3(CCNCC3)CC2C(=O)O)n1 (stereo not drawn) [CBK307174] | – | 89.5 |
| CCc1nnc(NS(=O)(=O)c2ccc(NC(=O)c3ccc(Cl)cc3Cl)cc2)s1 [CBK045493] | – | 88.5 |
| Cn1nccc1C(=O)Nc1nc(-c2ccccc2)cs1 [CBK287833] | – | 83.8 |
| OC1(Cn2ccc3ncccc32)CCN(CC2CC=CCC2)CC1 (stereo not drawn) [CBK284782] | – | 93.6 |
| Cc1[nH]c2ccc(CNC(=O)NC3CCCc4cn[nH]c43)cc2c1C (stereo not drawn) [CBK305488] | – | 89.8 |
| CCC(C)(C)c1ccc(S(=O)(=O)Nc2ccc3ncsc3c2)cc1 [CBK043490] | – | 113 |
| O=C(CSc1nnc(-c2ccccc2Cl)[nH]1)c1ccc(O)c(O)c1 [CBK267693] | – | 78.3 |
| O=C(O)/C=C\C(=O)Nc1ccc(Cl)c(NC(=O)Cc2ccccc2)c1 [CBK263955] | – | 93.7 |
| Cn1c(CCNC(=O)NC2CCCCC2)nc2cc([N+](=O)[O-])ccc21 [CBK268453] | – | 95.7 |
| CC(C(=O)Nc1sc2c(c1C(=O)NCc1ccco1)CCCC2)N1C(=O)c2ccccc2C1=O (stereo not drawn) [CBK265603] | – | 86.6 |
| CC(C)c1ccc(S(=O)(=O)NCCC2CCN(Cc3ccccc3)CC2)cc1 [CBK043456] | – | 94.5 |
| CCOC(=O)C1(c2ccccc2)CCN(C(=O)CCN2CCN(C)CC2)CC1 [CBK132211] | 86.2 | – |
| CC(C)C(=O)N1CCC(c2nc3ccccn3c2NC(C)(C)C)CC1 [CBK284745] | – | 95 |

| SMILES | viability at 28.5 h, 10 µM (bulk resorufin, single well) [%] | viability at 28.5 h, 10 µM [%] |
| --- | --- | --- |
| O=C(c1cccnc1)C1CCN(C(=O)Cc2ccsc2)CC1 [CBK283517] | – | 90.7 |
| CNS(=O)(=O)c1cccc(C(=O)N(C)Cc2ccsc2)c1 [CBK303993] | – | 113 |
| COCCn1cnnc1C(C)NC(=O)N(C)Cc1nc2ccccc2s1 (stereo not drawn) [CBK307427] | – | 88.2 |
| C=C[C@H]1C[N@@]2CC[C@H]1C[C@@H]2CNS(=O)(=O)c1ccc(NC(C)=O)cc1 [CBK288749] | – | 98.9 |
| C[C@@H](Nc1cncc(-c2cccc(N)c2)n1)c1ccccc1 [CBK065273] | – | 87.1 |
| O=C(Nc1ccc2c(c1)OCCO2)N1CCN(c2cc(C(F)(F)F)ccn2)CC1 [CBK162331] | – | 99.4 |
| CCOC(=O)c1cnc(SCc2nc(N)nc(Nc3ccc(F)cc3)n2)nc1N [CBK098477] | – | 82.3 |
| Cc1cc(C)c(S(=O)(=O)Nc2ccccc2C(=O)NCc2ccco2)c(C)c1 [CBK266382] | – | 98.2 |
| c1cc(-c2ccc3c(c2)COC2(CCNCC2)O3)ccn1 [CBK060867] | 99 | – |
| Cn1c(=O)[nH]c(=O)c2c1nc(SCCN1CCOCC1)n2CCCc1ccccc1 [CBK269234] | – | 95.5 |
| Cc1ccc(S(=O)(=O)N(C)CC(=O)OCC(=O)c2ccccc2)cc1 [CBK264329] | – | 95.1 |
| CC(C)(C)CC(=O)N1CCCC1c1n[nH]cc1-c1ccncc1 (stereo not drawn) [CBK283430] | – | 88.5 |
| CCn1c(CC2CCN(C(=O)CCn3nnnc3C)CC2)nn(C)c1=O [CBK307400] | – | 104 |
| O=C(NCCc1ccc(S(=O)(=O)NC(=O)NC2CCCCC2)cc1)NC1CCCCC1 [CBK011926] | – | 88.4 |
| COC(=O)c1cc(OC)c(OC)cc1NC(=S)N1CCC(C(N)=O)CC1 [CBK268507] | – | 93.3 |
| O=C(O)C1CC=CCC1C(=O)NCCCCc1ccccc1 (stereo not drawn) [CBK265460] | – | 98.7 |
| Cn1nc(C2CCCC2)cc1[C@H]1CN2CC[C@H]1C[C@@H]2CNS(C)(=O)=O [CBK288742] | – | 91.5 |
| O=C(Nc1nnc(-c2ccccc2)o1)c1ccc2ncsc2c1 [CBK287598] | – | 94.4 |
| CSc1ccc(S(=O)(=O)NCCSCc2ccc(C)cc2)cc1 [CBK268510] | – | 104 |
| Cc1cc(OCCCCNCCO)ccc1Cl [CBK033516] | – | 111 |
| COc1ccccc1CN[C@@H]1CCC[C@H]1Cc1cc(C)no1 [CBK283005] | – | 103 |
